We go through 3 molecules from patent publication EP2606887A1, “DIINDOLYLMETHANE, PRECURSOR AND DERIVATIVES THEREOF IN PREPARATION OF MEDICAMENTS FOR TREATING LIVER DISEASES” (Nanjing University, priority 2010, dated 2012).

Test [1] has as its system TAA-induced model hepatic fibrosis in mice. Nature of the test: Treatment of TAA-induced model hepatic fibrosis in mice by oral (intragastric) administration; hydroxyproline test and alanine aminotransferase test. It counts as in vivo, ICR mice. Particulars: hepatic tissue, 20mg/kg intragastrically in corn oil, twice a week, 4 weeks, TAA 200mg/kg, mean value ± standard deviation; for hydroxyproline: TAA model group 356±43; for alanine aminotransferase: TAA model group 372±24. An excerpt:
(§1) The following example is to be regarded as a case to illustrate specific details of this invention. It should not be viewed as to limit the application scope of this invention. Application of Indole-3-carbinol, Diindolylmethane and Derivatives thereof Disclosed in This Invention in the Treatment of Modeled Hepatic Fibrosis: • 1. Injecting the phosphate buffer solution of thioacetamide (TTA) into the abdominal cavity of ICR mice so that TTA models of hepatic fibrosis can be established. • 2. Dissolving indole-3-carbinol, diindolylmethane and derivative thereof in corn oil and treating hepatic fibrosis through intragastric administration at the same time of the establishment of TTA models of hepatic fibrosis. • 3. Administering TAA, indole-3-carbinol, diindolylmethane and derivatives thereof twice a week for four weeks in succession; killing the mice and taking out the liver for hydroxyproline test and alanine aminotransferase (ALT) test. Application of Water Injection of Indole-3-carbinol, Diindolylmethane and Derivatives thereof Disclosed in This Invention in the Treatment of Modeled Hepatic Fibrosis: • 1. Injecting the phosphate buffer solution of thioacetamide (TTA) into the abdominal cavity of ICR mice so that TTA models of hepatic fibrosis can be established. • 2. Dissolving indole-3-carbinol, diindolylmethane and derivative thereof in water and treating hepatic fibrosis through intraperitoneal administration at the same time of the establishment of TTA models of hepatic fibrosis. • 3. Administering TAA, indole-3-carbinol, diindolylmethane and derivatives thereof twice a week for four weeks in succession; killing the mice and taking out the liver for hydroxyproline test and alanine aminotransferase (ALT) test. Dissolving I3C, DIM and methoxyl-DIM in corn oil so that 2.0mg/ml stock solution can be obtained for later use; establishing TAA models of hepatic fibrosis in mice with the method commonly adopted in the related literature, namely, picking 40 mice weighing 16-18g and randomly dividing them into four groups: TAA model group, I3C treatment group, DIM treatment group and 5-methoxyl-DIM treatment group; injecting TAA phosphate buffer solution (200mg/kg) into the abdominal cavity of the mice, twice a week; starting the treatment at the same time of the model establishment: administering the correlated drugs intragastrically at the rate of 20mg/kg to the mice in I3C treatment group, DIM treatment group and 5-methoxyl-DIM treatment group, twice a week; in contrast, the mice in the TAA model group are given only corn oil at the same dosage and frequency. Killing all mice of the four groups 4 weeks later and taking out the pathologically changed hepatic tissue for hydroxyproline test and alanine aminotransferase test. • (1) Hydroxyproline test Preparing the tissue homogenate of the pathologically changed liver and extracting the supernatant thereof; testing the concentration of hydroxyproline by means of alkaline hydrolysis. • (2) Results of alanine aminotransferase test Testing the serum of mice so that the concentration of alanine aminotransferase can be determined. When hepatic fibrosis is in process, what accumulate in liver are mainly collagen fibers. Since hydroxyproline is specific to collagen fibers, its concentration to some extent reflects the degree of hepatic fibrosis. As is shown in table 1, the oral administration of I3C, DIM and derivatives thereof can effectively relieve hepatic fibrosis as the concentration of hydroxyproline in the treatment groups is significant lower than that of the TAA model group. […]

Test [2] shares this test system. Nature of the test: Treatment of TAA-induced model hepatic fibrosis in mice by intraperitoneal administration of water injection; hydroxyproline test and alanine aminotransferase test. Format: in vivo, ICR mice. The conditions noted are these: 20mg/kg intraperitoneally, water injection with cyclodextrin in physiological saline, twice a week, 4 weeks, mean value ± standard deviation; for alanine aminotransferase: TAA model group 392±31; for hydroxyproline: hepatic tissue, TAA model group 363±32.
Description: as §1, with “determined.” for “determined. When hepatic fibrosis is in process, what accumulate in liver are mainly collagen fibers. Since hydroxyproline is specific to collagen fibers, its concentration to some extent reflects the degree of hepatic fibrosis. As is shown in table 1, the oral administration of I3C, DIM and derivatives thereof can effectively relieve hepatic fibrosis as the concentration of hydroxyproline in the treatment groups is significant lower than that of the TAA model group.”

With `COc1ccc2[nH]cc(Cc3c[nH]c4ccc(OC)cc34)c2c1` [5-methoxyl-DIM], the hydroxyproline in test [1] amounted to 194±17 µg/g liver; in test [2], 203±14 µg/g liver. The alanine aminotransferase in test [1] is 236±12 U/mgprot; in test [2], 226±19 U/mgprot.

In the case of `c1ccc2c(Cc3c[nH]c4ccccc34)c[nH]c2c1` [DIM, 3,3'-Diindolylmethane], in test [1], the hydroxyproline is reported as 176±21 µg/g liver and the alanine aminotransferase is 204±37 U/mgprot. In test [2], the alanine aminotransferase is reported as 187±29 U/mgprot and the hydroxyproline is 195±24 µg/g liver.

In test [1], `OCc1c[nH]c2ccccc12` [I3 C, indole-3-carbinol] gave a hydroxyproline of 237±11 µg/g liver and an alanine aminotransferase of 245±32 U/mgprot. Also, in test [2], the alanine aminotransferase is on record as 239±21 U/mgprot and the hydroxyproline was determined as 253±21 µg/g liver.
